Laboratory results from the supplement of paper PMC10307832.

How the values were obtained:
Assay in all cases: relative viability (nuclei count vs DMSO), 5 days (fraction); higher = more cells survive
[1] = test system: A549
Procedure, shortened: (§1)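 Lung cancer cell lines in 1536-well plates were dosed by pin tool the day after seeding, either with one drug alone or with a fixed anchor-drug dose plus five library-drug doses (not always all listed) in √10 steps. After 5 days, cells were fixed and their nuclei stained in one step (final 0.05% Triton X-100, 1% formaldehyde, 1 ug/ml Hoechst), then counted on 4× images. Relative viability is the nuclei count in treated wells divided by that in vehicle wells. Values are medians of duplicate plates.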

[2] = test system: ABC-1
Procedure, shortened: as §1

[3] = test system: Calu-6
Procedure, shortened: as §1

[4] = test system: EBC-1
Procedure, shortened: as §1

[5] = test system: EKVX
Procedure, shortened: as §1

[6] = test system: HCC-44
Procedure, shortened: as §1

[7] = test system: IA-LM
Procedure, shortened: as §1

[8] = test system: NCI-H1299
Procedure, shortened: as §1

[9] = test system: NCI-H1703
Procedure, shortened: as §1

[10] = test system: NCI-H1993
Procedure, shortened: as §1

[11] = test system: NCI-H2085
Procedure, shortened: as §1

[12] = test system: NCI-H2126
Procedure, shortened: as §1

[13] = test system: RERF-LC-KJ
Procedure, shortened: as §1

SMILES: Nc1ccn([C@@H]2O[C@H](CO)[C@@H](O)[C@@H]2O)c(=O)n1 [Cytarabine] + Cc1nc(NC(=O)N2CCC[C@H]2C(N)=O)sc1-c1ccnc(C(C)(C)C(F)(F)F)c1 [Alpelisib] (partner 2 µM)
- relative viability ([1]; first compound 0.005 µM): 0.596
- relative viability ([1]; first compound 0.01581 µM): 0.479
- relative viability ([1]; first compound 0.05 µM): 0.399
- relative viability ([1]; first compound 0.1581 µM): 0.0482
- relative viability ([1]; first compound 0.5 µM): 0.0328
- relative viability ([2]; first compound 0.005 µM): 1.02
- relative viability ([2]; first compound 0.01581 µM): 1.4
- relative viability ([2]; first compound 0.05 µM): 1.09
- relative viability ([2]; first compound 0.1581 µM): 0.738
- relative viability ([2]; first compound 0.5 µM): 0.55
- relative viability ([3]; first compound 0.005 µM): 0.925
- relative viability ([3]; first compound 0.01581 µM): 0.826
- relative viability ([3]; first compound 0.05 µM): 0.79
- relative viability ([3]; first compound 0.1581 µM): 0.483
- relative viability ([3]; first compound 0.5 µM): 0.288
- relative viability ([4]; first compound 0.005 µM): 0.694
- relative viability ([4]; first compound 0.01581 µM): 0.64
- relative viability ([4]; first compound 0.05 µM): 0.676
- relative viability ([4]; first compound 0.1581 µM): 0.439
- relative viability ([4]; first compound 0.5 µM): 0.248
- relative viability ([5]; first compound 0.005 µM): 0.867
- relative viability ([5]; first compound 0.01581 µM): 0.893
- relative viability ([5]; first compound 0.05 µM): 0.818
- relative viability ([5]; first compound 0.1581 µM): 0.371
- relative viability ([5]; first compound 0.5 µM): 0.211
- relative viability ([6]; first compound 0.005 µM): 0.806
- relative viability ([6]; first compound 0.01581 µM): 0.726
- relative viability ([6]; first compound 0.05 µM): 0.586
- relative viability ([6]; first compound 0.1581 µM): 0.429
- relative viability ([6]; first compound 0.5 µM): 0.517
- relative viability ([7]; first compound 0.005 µM): 0.784
- relative viability ([7]; first compound 0.01581 µM): 0.591
- relative viability ([7]; first compound 0.05 µM): 0.701
- relative viability ([7]; first compound 0.1581 µM): 0.259
- relative viability ([7]; first compound 0.5 µM): 0.114
- relative viability ([8]; first compound 0.005 µM): 1.13
- relative viability ([8]; first compound 0.01581 µM): 1.21
- relative viability ([8]; first compound 0.05 µM): 1.13
- relative viability ([8]; first compound 0.1581 µM): 1
- relative viability ([8]; first compound 0.5 µM): 1.06
- relative viability ([9]; first compound 0.005 µM): 0.294
- relative viability ([9]; first compound 0.01581 µM): 0.22
- relative viability ([9]; first compound 0.05 µM): 0.194
- relative viability ([9]; first compound 0.1581 µM): 0.117
- relative viability ([9]; first compound 0.5 µM): 0.143
- relative viability ([10]; first compound 0.005 µM): 0.691
- relative viability ([10]; first compound 0.01581 µM): 0.636
- relative viability ([10]; first compound 0.05 µM): 0.642
- relative viability ([10]; first compound 0.1581 µM): 0.501
- relative viability ([10]; first compound 0.5 µM): 0.517
- relative viability ([11]; first compound 0.005 µM): 0.936
- relative viability ([11]; first compound 0.01581 µM): 0.827
- relative viability ([11]; first compound 0.05 µM): 0.869
- relative viability ([11]; first compound 0.1581 µM): 0.62
- relative viability ([11]; first compound 0.5 µM): 0.558
- relative viability ([12]; first compound 0.005 µM): 0.765
- relative viability ([12]; first compound 0.01581 µM): 0.597
- relative viability ([12]; first compound 0.05 µM): 0.694
- relative viability ([12]; first compound 0.1581 µM): 0.564
- relative viability ([12]; first compound 0.5 µM): 0.408
- relative viability ([13]; first compound 0.005 µM): 0.742
- relative viability ([13]; first compound 0.01581 µM): 0.657
- relative viability ([13]; first compound 0.05 µM): 0.864
- relative viability ([13]; first compound 0.1581 µM): 0.499
- relative viability ([13]; first compound 0.5 µM): 0.36
